In BindingDB's records for patent US12473304 (Bristol-Myers Squibb, 2025):

target: Protein-arginine deiminase type-4 (Homo sapiens, UniProt Q9UM07); assay: RFMS Human PAD4 Functional Assay 1
Experimental: Reaction volume: 26 μlAssay buffer: 25 mM hepes, pH 7.5, 5 mM NaCl, 1 mM DTT, 0.2 mg/ml BSA, 0.01% CHAPS, 50 μM Calcium, and 5 μM TPENFinal concentrations: 5 nM hPAD4 enzyme, 250 μM BASE, and 0.5% DMSOTotal incubation time: 30 mins compound and enzyme preincubation at 37° C., 90 min enzyme/substrate reaction, 30 min reaction with phenyl glyoxal at 37° C.Stop solution: 40 μl 5% TCA in ACN0.13 μL of compound solution was added to 13 μL of 10 nM PAD4 in assay buffer. After 30 min 13 μl of 500 μM of BAEE was added in 25 mM hepes, pH 7.5, 5 mM NaCl, 1 mM DTT, 0.2 mg/ml BSA, 0.01% CHAPS, 50 μM Calcium, 5 μM TPEN was added and the reaction incubated for 90 min at 37° C. The enzymatic reaction was quenched by addition of 15 μl of 6.1N TCA, 100% Final Concentration is 20%, 35 μl of 8.5 mM phenyl glyoxal (final concentration 4 mM) is then added and the reaction is incubated for 30 min at 37° C.After 30 minutes the plates are spun down to remove all precipitate. The enzyme reaction was quenched with an equal volume of methanol containing internal standard (modified citrulline). Samples were loaded onto the Rapid Fire RF300 system (Agilent) wherein they were first sipped for 1000 ms and then directly loaded to a C18 separations cartridge using a mixture of acetonitrile containing 0.01% formic acid for 3000 ms desalting. The flow rate of the mobile phase was 1.5 ml/min. Once the samples were eluted from the cartridge, a mobile phase of acetonitrile containing 0.01% formic acid was used to move the samples into the mass spectrometer for 4000 ms at a flow rate of 1.25 ml/min/Sciex API5500 triple quadrupole mass spectrometer (Applied Biosystems) equipped with ESI was used to analyze the peptidyl citrulline and internal standard ions.

Protein-arginine deiminase type-4, sequence (Q9UM07 whole entry): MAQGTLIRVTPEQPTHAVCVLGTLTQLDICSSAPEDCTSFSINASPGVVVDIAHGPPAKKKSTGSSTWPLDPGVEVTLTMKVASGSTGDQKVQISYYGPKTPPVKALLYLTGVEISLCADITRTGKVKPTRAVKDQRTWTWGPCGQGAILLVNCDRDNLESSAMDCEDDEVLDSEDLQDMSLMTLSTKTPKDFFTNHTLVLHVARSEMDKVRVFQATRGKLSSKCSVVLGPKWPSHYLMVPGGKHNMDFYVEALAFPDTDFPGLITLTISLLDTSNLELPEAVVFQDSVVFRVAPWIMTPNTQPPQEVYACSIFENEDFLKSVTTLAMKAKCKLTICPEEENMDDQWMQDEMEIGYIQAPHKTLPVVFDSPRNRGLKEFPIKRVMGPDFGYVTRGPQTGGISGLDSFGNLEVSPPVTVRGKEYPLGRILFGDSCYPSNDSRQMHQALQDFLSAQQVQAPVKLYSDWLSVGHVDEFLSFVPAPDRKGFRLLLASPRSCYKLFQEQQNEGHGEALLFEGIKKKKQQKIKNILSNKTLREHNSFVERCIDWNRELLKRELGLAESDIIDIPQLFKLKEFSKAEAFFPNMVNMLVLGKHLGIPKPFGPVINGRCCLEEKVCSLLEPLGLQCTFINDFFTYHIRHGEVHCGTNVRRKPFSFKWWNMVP

| SMILES | IC50 [µM] |
| --- | --- |
| COc1cc(C(=O)N2CC3CCC2[C@@H]3N)cn2nc(-c3cc4ccc(C(C)(C)O)cc4n3CC3CC3)c(C)c12 (stereo not given in full) [US12473304, Example 97] | 0.03 |
| Cc1c(-c2cc3ccc(-c4ccc5c(c4)CNC5=O)nc3n2CC2CC2)nn2cc(C(=O)N3CC4CCC3[C@@H]4N)ccc12 (stereo not given in full) [US12473304, Example 64] | 0.055 |

Now from value to compound:

| IC50 [µM] | SMILES |
| --- | --- |
| 0.14 | COc1cc(C(=O)N2CCC[C@@H](N)C2)cn2nc(-c3cc4ccc(-c5cc(F)c(C(N)=O)cc5C)nc4n3CC3CC3)c(C)c12 [US12473304, Example 208] |
| 0.15 | COc1cc(C(=O)N2C[C@H](N)C[C@@H](F)C2)cn2nc(-c3cc4ccc(-c5cc(F)c(C(N)=O)cc5C)nc4n3CC3CC3)c(C)c12 [US12473304, Example 207] |
| 0.526 | COc1cc(C(=O)N2C[C@H](N)C[C@@H](F)C2)cn2nc(-c3cc4ccc(Cl)nc4n3CC3CC3)c(C)c12 [US12473304, Example 15] |
